Test results from patent US20220289794A1, “SYNTHETIC ANTIMICROBIAL PEPTIDES” (priority 2019, published 2022).

Legend:
[1] = tested on: Pseudomonas aeruginosa (ATCC 27883); conditions: P. aeruginosa ATCC 27883
[2] = tested on: Escherichia coli (ATCC 25922); conditions: E. coli ATCC 25922
[3] = tested on: Streptococcus pneumoniae ATCC 49619; conditions: S. pneumoniae ATCC 49619
[4] = tested on: P. aeruginosa (ATCC BAA-1744); assay: Broad-spectrum activity against Gram-Negative bacteria (MIC); type: cell-based; conditions: Table 16, Gram-negative panel
[5] = tested on: Klebsiella pneumoniae ATCC 13883; conditions: Table 16, Gram-negative panel
[6] = tested on: A. baumannii (ATCC BAA-1605); assay: Broad-spectrum activity against Gram-Negative bacteria (MIC); type: cell-based; conditions: Table 16, Gram-negative panel
[7] = tested on: Streptococcus pneumoniae ATCC 51938; conditions: S. pneumoniae ATCC 51938
[8] = tested on: Enterococcus faecalis ATCC 51575; conditions: E. faecalis ATCC 51575
[9] = tested on: Enterococcus faecium ATCC 27270; conditions: E. faecium ATCC 27270
[10] = tested on: B. subtilis (ATCC-6633); assay: Broad-spectrum activity against Gram-Positive bacteria (MIC); type: cell-based; design: unit not given here
[11] = tested on: E. coli (ATCC BAA-2452); assay: Broad-spectrum activity against Gram-Negative bacteria (MIC); type: cell-based; conditions: Table 16, Gram-negative panel
[12] = tested on: S. aureus ATCC 29213; conditions: S. aureus ATCC 29213
[13] = tested on: B. cereus (ATCC-13061); assay: Broad-spectrum activity against Gram-Positive bacteria (MIC); type: cell-based; design: unit not given here
[14] = tested on: Enterococcus faecalis ATCC 29212; conditions: E. faecalis ATCC 29212
[15] = tested on: Klebsiella pneumoniae (ATCC BAA-1705); conditions: Table 16, Gram-negative panel
[16] = tested on: Methicillin-resistant Staphylococcus aureus MRSA (ATCC BAA-1556); conditions: MRSA ATCC BAA-1556
[17] = tested on: Enterococcus faecium ATCC 700221; conditions: E. faecium ATCC 700221
[18] = tested on: P. aeruginosa (ATCC 10145); assay: Broad-spectrum activity against Gram-Negative bacteria (MIC); type: cell-based; conditions: Table 16, Gram-negative panel

Row | Substance | MIC P. aeruginosa ATCC 27883 [1] [µg/mL] | MIC E. coli ATCC 25922 [2] [µg/mL] | Broad-spectrum activity S. pneumoniae (ATCC 49619) [3] | MIC P. aeruginosa (ATCC BAA-1744) [4] [µg/mL] | MIC K. pneumonia (ATCC 13883) [5] [µg/mL] | MIC A. baumannii (ATCC BAA-1605) [6] [µg/mL] | Broad-spectrum activity S. pneumoniae (ATCC 51938) [7] | Broad-spectrum activity E. faecalis (ATCC 51575) [8] | Broad-spectrum activity E. faecium (ATCC 27270) [9] | Broad-spectrum activity B. subtilis (ATCC-6633) [10] | MIC E. coli (ATCC BAA-2452) [11] [µg/mL] | MIC S. aureus ATCC 29213 [12] [µg/mL] | Broad-spectrum activity B. cereus (ATCC-13061) [13] | Broad-spectrum activity E. faecalis (ATCC 29212) [14] | MIC K. pneumonia (ATCC BAA-1705) [15] [µg/mL] | MIC MRSA ATCC BAA-1556 [16] [µg/mL] | Broad-spectrum activity E. faecium (ATCC 700221) [17] | MIC P. aeruginosa (ATCC 10145) [18] [µg/mL]
1 | c[arg-Arg-Arg-Arg-Dip-Dip-Dip] [IFX-066] | 12.5 | 12.5 | 25 | 12.5 | 50 | 6.2 | 12.5 | 12.5 | 3.1 | 1.5 | 12.5 | 3.1 | 6.2 | 6.2 | 12.5 | 1.5 | 3.1 | 25
2 | c[arg-Arg-Arg-Arg-Dip-Trp-Dip] [IFX-094] | 6.2 | 12.5 | 25 | 25 | 50 | 12.5 | 25 | 12.5 | 6.2 | 3.1 | 12.5 | 3.1 | 6.2 | 12.5 | 12.5 | 3.1 | 12.5 | 50
3 | c[arg-Arg-arg-Arg-dip-Trp-dip] [IFX-096] | 6.2 | 6.2 | 25 | 50 | 50 | 25 | 25 | 12.5 | 3.1 | 3.1 | 12.5 | 3.1 | 6.2 | 12.5 | 25 | 3.1 | 6.2 | 50
4 | c[arg-arg-Arg-Arg-NaI-trp-NaI] [IFX-140] | 32 | 32 | 25 | 25 | 50 | 12.5 | 12.5 | 6.2 | 3.1 | 1.5 | 25 | 3.1 | 3.1 | 6.2 | > 50 | 3.1 | 6.2 | 25
5 | c[arg-arg-Arg-Arg-naI-Trp-naI] [IFX-136] | 32 | 16 | 25 | 25 | 50 | 12.5 | 12.5 | 6.2 | 3.1 | 1.5 | 12.5 | 1.5 | 3.1 | 6.2 | 25 | 3.1 | 3.1 | 50
